Reference: patent US12187662B2, “FOXM1 inhibitor compositions and methods of using the same” (The Board of Trustees of the University of Illinois, priority 2018, dated 2025)
Like-named read-outs stand apart in the source and are kept apart here.

What was measured:
[1] = test system: MCF7 cells; assay: Cell proliferation assay (WST-1), MCF7; assay type: cell-based, human
Protocol: (§1) All cells were tested for mycoplasma using Real-Time PCR Mycoplasma Detection Kit (Akron Biotech, Boca Raton, FL).
(§2) All assays were performed in triplicate.

[2] = Pharmacokinetic studies in mice after single s.c. or oral dose
Protocol: For s.c. injection, each compound was dissolved in DMSO and then mixed with corn oil for a total injection volume of 100 μL (10% DSMO+90% corn oil) per mouse. For oral gavage, compounds were administered in a 200 μL formulation of 9/0.5/0.5/90 parts of PEG400/Tween80/Povidone/0.5% Carboxymethylcellulose. […] Compounds were quantified by LC-MS/MS at the University of Illinois Metabolomics Core Facility. The data were fitted to a non-compartment model.

[3] = test system: DT22 cells; assay: Cell proliferation assay (WST-1), DT22; assay type: cell-based, human; conditions: Homo sapiens, DT-22, inhibition of cell proliferation
Protocol: as §1, §2

[4] = inhibition of cell proliferation, read-out: IC50 MCF7
[5] = Homo sapiens, MCF7, inhibition of cell proliferation, read-out: IC50 MCF7

IC50 [1, 5] [nM] | Molecule | other results
2300 | C[N+]1(CCCCCCOc2ccc(C(=C3C4CC5CC(C4)CC3C5)c3ccc(OCCCCCC[N+]4(C)CCC4)cc3)cc2)CCC1 [NB-137, 1,1′-((((((5r,7r)-adamantan-2-ylidene)methylene)bis(4,1-phenylene))bis(oxy))bis(hexane-6,1-diyl))bis(1-methylazetidin-1-ium) diiodide] | –
700 | OC[C@@H]1CCCN1CCCCCCOc1ccc(C(=C2C3CC4CC(C3)CC2C4)c2ccc(OCCCCCCN3CCC[C@H]3CO)cc2)cc1 [NB-138, ((2S,2'S)-((((((5r,7r)-adamantan-2-ylidene)methylene)bis(4,1-phenylene))bis(oxy))bis(hexane-6,1-diyl))bis(pyrrolidine-1,2-diyl))dimethanol] | PK p.o. AUC0-48 ([2]; mice, 40 mg/kg p.o.): 1.84 µM·h; PK p.o. t1/2 ([2]; mice, 40 mg/kg p.o.): 25.0 h
900 | C[N+]1(CCCCCCOc2ccc(C(=C3C4CC5CC(C4)CC3C5)c3ccc(OCCCCCC[N+]4(C)CCC[C@H]4CO)cc3)cc2)CCC[C@H]1CO (stereo partly drawn) [NB-139, (1R,1′R,2S,2'S)-1,1′-((((((5r,7r)-adamantan-2-ylidene)methylene)bis(4,1-phenylene))bis(oxy))bis(hexane-6,1-diyl))bis(2-(hydroxymethyl)-1-methylpyrrolidin-1-ium) diiodide] | –
1600 | OCC[N+]1(CCCCCCOc2ccc(C(=C3C4CC5CC(C4)CC3C5)c3ccc(OCCCCCC[N+]4(CCO)CCCC4)cc3)cc2)CCCC1 [NB-140, 1,1′-((((((5r,7r)-adamantan-2-ylidene)methylene)bis(4,1-phenylene))bis(oxy))bis(hexane-6,1-diyl))bis(1-(2-hydroxyethyl)pyrrolidin-1-ium) diiodide] | –
3600 | OCC[N+]1(CCCCCCOc2ccc(C(=C3C4CC5CC(C4)CC3C5)c3ccc(OCCCCCC[N+]4(CCO)CCCCC4)cc3)cc2)CCCCC1 [NB-141, 1,1′-((((((5r,7r)-adamantan-2-ylidene)methylene)bis(4,1-phenylene))bis(oxy))bis(hexane-6,1-diyl))bis(1-(2-hydroxyethyl)piperidin-1-ium) diiodide] | –
2400 | OCC[N+]1(CCCCCCOc2ccc(C(=C3C4CC5CC(C4)CC3C5)c3ccc(OCCCCCC[N+]4(CCO)CCCCCC4)cc3)cc2)CCCCCC1 [NB-142, 1,1′-((((((5r,7r)-adamantan-2-ylidene)methylene)bis(4,1-phenylene))bis(oxy))bis(hexane-6,1-diyl))bis(1-(2-hydroxyethyl)azepan-1-ium) diiodide] | –
1100 | CC1(O)CN(CCCCCCOc2ccc(C(=C3C4CC5CC(C4)CC3C5)c3ccc(OCCCCCCN4CC(C)(O)C4)cc3)cc2)C1 [NB-143, 1,1′-((((((5r,7r)-adamantan-2-ylidene)methylene)bis(4,1-phenylene))bis(oxy))bis(hexane-6,1-diyl))bis(3-methylazetidin-3-ol)] | –
1800 | CC1(O)C[N+](C)(CCCCCCOc2ccc(C(=C3C4CC5CC(C4)CC3C5)c3ccc(OCCCCCC[N+]4(C)CC(C)(O)C4)cc3)cc2)C1 (centres unmarked) [NB-144, 1,1′-((((((5r,7r)-adamantan-2-ylidene)methylene)bis(4,1-phenylene))bis(oxy))bis(hexane-6,1-diyl))bis(3-hydroxy-1,3-dimethylazetidin-1-ium) diiodide] | –
900 | OC1CN(CCCCCCOc2ccc(C(=C3C4CC5CC(C4)CC3C5)c3ccc(OCCCCCCN4CC(O)C4)cc3)cc2)C1 [NB-145, 1,1′-((((((5r,7r)-adamantan-2-ylidene)methylene)bis(4,1-phenylene))bis(oxy))bis(hexane-6,1-diyl))bis(azetidin-3-ol)] | PK p.o. AUC0-48 ([2]; mice, 40 mg/kg p.o.): too low to measure

Further lines, the molecule ahead of its results:

Molecule | IC50 [1, 5] [nM] | other results
1-(6-(4-((Z)-((5S,7S)-adamantan-2-ylidene)(4-chlorophenyl)methyl)phenoxy)hexyl)-1-methylazepan-1-ium iodide [NB-85] | – | IC50 [1, 4]: 9800 nM
1-(6-(4-((Z)-((5S,7S)-adamantan-2-ylidene)(4-chlorophenyl)methyl)phenoxy)hexyl)-1H-imidazole [NB-60] | – | IC50 [1, 4]: 16000 nM
1-(6-(4-((Z)-((5S,7S)-adamantan-2-ylidene)(4-chlorophenyl)methyl)phenoxy)hexyl)-4-methylpiperazine [NB-64] | – | IC50 [1, 4]: 3000 nM
c1cn(CCCCCCOc2ccc(C(=C3C4CC5CC(C4)CC3C5)c3ccc(OCCCCCCn4ccnc4)cc3)cc2)cn1 [NB-61, 1,1′-((((((5r,7r)-adamantan-2-ylidene)methylene)bis(4,1-phenylene))bis(oxy))bis(hexane-6,1-diyl))bis(1H-imidazole)] | 7500 | –
C[n+]1ccn(CCCCCCOc2ccc(C(=C3C4CC5CC(C4)CC3C5)c3ccc(Cl)cc3)cc2)c1 [NB-62, 1-(6-(4-((Z)-((5S,7S)-adamantan-2-ylidene)(4-chlorophenyl)methyl)phenoxy)hexyl)-3-methyl-1H-imidazol-3-ium iodide] | 5500 | half-life ([2]; female, CD-1, mouse, plasma, sc, 40 mg/kg): 36.8 h; AUC(0-t) ([2]; female, CD-1, mouse, plasma, sc, 40 mg/kg, PK s.c. AUC0-48, mice, 40 mg/kg s.c.): 150 µM·h; PK p.o. AUC0-48 ([2]; mice, 40 mg/kg p.o.): too low to measure
CN1CC[N+](C)(CCCCCCOc2ccc(C(=C3C4CC5CC(C4)CC3C5)c3ccc(OCCCCCC[N+]4(C)CCN(C)CC4)cc3)cc2)CC1 [NB-69, 1,1′-((((((5r,7r)-adamantan-2-ylidene)methylene)bis(4,1-phenylene))bis(oxy))bis(hexane-6,1-diyl))bis(1,4-dimethylpiperazin-1-ium) dimethanesulfonate] | 6000 | –
c1cc(C(=C2C3CC4CC(C3)CC2C4)c2ccc(OCCCCCCN3CCCCCC3)cc2)ccc1OCCCCCCN1CCCCCC1 [NB-72, 1,1′-((((((5r,7r)-Adamantan-2-ylidene)methylene)bis(4,1-phenylene))bis(oxy))bis(hexane-6,1-diyl))bis(azepane)] | – | IC50 ([1]; Homo sapiens, MCF7, read-out: IC50 MCF7): 700 nM; IC50 [3]: 700 nM
Clc1ccc(C(=C2C3CC4CC(C3)CC2C4)c2ccc(OCCCCCCN3CCCCC3)cc2)cc1 [NB-118, 1-(6-(4-((Z)-((5S,7S)-Adamantan-2-ylidene)(4-chlorophenyl)methyl)phenoxy)hexyl)piperidine] | 4400 | –
Clc1ccc(C(=C2C3CC4CC(C3)CC2C4)c2ccc(OCCCCCCN3CCCCCC3)cc2)cc1 [NB-119, 1-(6-(4-((Z)-((5S,7S)-Adamantan-2-ylidene)(4-chlorophenyl)methyl)phenoxy)hexyl)azepane] | 4200 | –
c1cc(C(=C2C3CC4CC(C3)CC2C4)c2ccc(OCCCCN3CCCCC3)cc2)ccc1OCCCCN1CCCCC1 [NB-120, 1,1′-((((((5r,7r)-adamantan-2-ylidene)methylene)bis(4,1-phenylene))bis(oxy))bis(butane-4,1-diyl))dipiperidine] | 900 | –
c1cc(C(=C2C3CC4CC(C3)CC2C4)c2ccc(OCCCCN3CCCCCC3)cc2)ccc1OCCCCN1CCCCCC1 [NB-121, 1,1′-((((((5r,7r)-adamantan-2-ylidene)methylene)bis(4,1-phenylene))bis(oxy))bis(butane-4,1-diyl))bis(azepane)] | 1600 | –
c1cc(C(=C2C3CC4CC(C3)CC2C4)c2ccc(OCCCCCN3CCCCC3)cc2)ccc1OCCCCCN1CCCCC1 [NB-122, 1,1′-((((((5r,7r)-adamantan-2-ylidene)methylene)bis(4,1-phenylene))bis(oxy))bis(pentane-5,1-diyl))dipiperidine] | 1200 | –
c1cc(C(=C2C3CC4CC(C3)CC2C4)c2ccc(OCCCCCN3CCCCCC3)cc2)ccc1OCCCCCN1CCCCCC1 [NB-123, 1,1′-((((((5r,7r)-adamantan-2-ylidene)methylene)bis(4,1-phenylene))bis(oxy))bis(pentane-5,1-diyl))bis(azepane)] | 1000 | –
CCN(CCO)CCCCCCOc1ccc(C(=C2C3CC4CC(C3)CC2C4)c2ccc(OCCCCCCN(CC)CCO)cc2)cc1 [NB-130, 2,2′-(((((((5r,7r)-adamantan-2-ylidene)methylene)bis(4,1-phenylene))bis(oxy))bis(hexane-6,1-diyl))bis(ethylazanediyl))bis(ethan-1-ol)] | 1200 | PK p.o. AUC0-48 ([2]; mice, 40 mg/kg p.o.): too low to measure
OCCN(CCO)CCCCCCOc1ccc(C(=C2C3CC4CC(C3)CC2C4)c2ccc(OCCCCCCN(CCO)CCO)cc2)cc1 [NB-131, 2,2′,2″,2″′-(((((((5r,7r)-adamantan-2-ylidene)methylene)bis(4,1-phenylene))bis(oxy))bis(hexane-6,1-diyl))bis(azanetriyl))tetrakis(ethan-1-ol)] | 900 | PK p.o. AUC0-48 ([2]; mice, 40 mg/kg p.o.): too low to measure
OC1CCN(CCCCCCOc2ccc(C(=C3C4CC5CC(C4)CC3C5)c3ccc(OCCCCCCN4CCC(O)CC4)cc3)cc2)CC1 [NB-132, 1,1′-((((((5r,7r)-adamantan-2-ylidene)methylene)bis(4,1-phenylene))bis(oxy))bis(hexane-6,1-diyl))bis(piperidin-4-ol)] | 1600 | –
c1cc(C(=C2C3CC4CC(C3)CC2C4)c2ccc(OCCCCCCN3CCC3)cc2)ccc1OCCCCCCN1CCC1 [NB-133, 1,1′-((((((5r,7r)-adamantan-2-ylidene)methylene)bis(4,1-phenylene))bis(oxy))bis(hexane-6,1-diyl))bis(azetidine)] | 800 | –
C[N+](CCO)(CCO)CCCCCCOc1ccc(C(=C2C3CC4CC(C3)CC2C4)c2ccc(OCCCCCC[N+](C)(CCO)CCO)cc2)cc1 [NB-135, 6,6′-(((((5r,7r)-adamantan-2-ylidene)methylene)bis(4,1-phenylene))bis(oxy))bis(N,N-bis(2-hydroxyethyl)-N-methylhexan-1-aminium) diiodide] | 2100 | –
C[N+]1(CCCCCCOc2ccc(C(=C3C4CC5CC(C4)CC3C5)c3ccc(OCCCCCC[N+]4(C)CCC(O)CC4)cc3)cc2)CCC(O)CC1 (centres unmarked) [NB-136, 1,1′-((((((5r,7r)-adamantan-2-ylidene)methylene)bis(4,1-phenylene))bis(oxy))bis(hexane-6,1-diyl))bis(4-hydroxy-1-methylpiperidin-1-ium) diiodide] | 1000 | –
(S)-1-(6-(4-((Z)-((5S,7S)-adamantan-2-ylidene)(4-chlorophenyl)methyl)phenoxy)hexyl)-1-methyl-1λ^4-piperidin-2-ylium iodide [NB-84] | – | IC50 [1, 4]: 6000 nM
